Calls of active or inactive are those of the source.
How the values were obtained:
[1] = biological target: Alkaline phosphatase, placental type (Homo sapiens, UniProt P05187); assay: human placental alkaline phosphatase inhibition – biochemical, luminescence, confirmation (AID 1512); format: functional
[2] = biological target: T1, Tyrosine-protein phosphatase non-receptor type 7 (Homo sapiens, UniProt P35236); assay: SAR analysis of chemical inhibitors of HePTP using a Fluorescent assay - Set 2. [Related pubchem assays (depositor defined):AID1059, AID1077, AID1661, AID2085, AID521]; format: functional
T1 sequence (P35236 whole entry): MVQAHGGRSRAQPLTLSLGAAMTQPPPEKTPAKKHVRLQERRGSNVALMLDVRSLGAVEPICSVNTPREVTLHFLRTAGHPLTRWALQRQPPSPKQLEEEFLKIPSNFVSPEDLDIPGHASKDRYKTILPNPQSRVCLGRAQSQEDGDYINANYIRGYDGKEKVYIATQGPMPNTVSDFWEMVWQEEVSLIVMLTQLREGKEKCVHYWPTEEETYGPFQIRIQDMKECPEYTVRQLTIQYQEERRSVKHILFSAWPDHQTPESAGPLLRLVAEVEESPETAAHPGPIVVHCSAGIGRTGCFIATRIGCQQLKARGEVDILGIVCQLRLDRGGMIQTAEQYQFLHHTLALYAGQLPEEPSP

[3] = biological target: T2, Dual specificity protein phosphatase 3 (Homo sapiens, UniProt P51452); assay: SAR VHR1 Fluorescent Assay for In Vitro dose response studies Set 2. [Related pubchem assays (depositor defined):AID1654, AID1661, AID1878]; format: functional
T2 sequence (P51452 whole entry): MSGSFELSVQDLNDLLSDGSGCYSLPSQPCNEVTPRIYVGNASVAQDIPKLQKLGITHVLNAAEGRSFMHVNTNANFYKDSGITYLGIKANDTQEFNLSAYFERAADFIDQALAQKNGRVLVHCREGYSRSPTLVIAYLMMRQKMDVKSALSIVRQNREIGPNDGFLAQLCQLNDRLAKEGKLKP

[4] = biological target: T3, Eukaryotic translation initiation factor 2-alpha kinase 3 (Homo sapiens, UniProt Q9NZJ5); assay: Dose response cell-based high-throughput screening assay to measure PERK inhibition. [Related pubchem assays: 1416 ]; format: functional
T3 sequence (Q9NZJ5 whole entry): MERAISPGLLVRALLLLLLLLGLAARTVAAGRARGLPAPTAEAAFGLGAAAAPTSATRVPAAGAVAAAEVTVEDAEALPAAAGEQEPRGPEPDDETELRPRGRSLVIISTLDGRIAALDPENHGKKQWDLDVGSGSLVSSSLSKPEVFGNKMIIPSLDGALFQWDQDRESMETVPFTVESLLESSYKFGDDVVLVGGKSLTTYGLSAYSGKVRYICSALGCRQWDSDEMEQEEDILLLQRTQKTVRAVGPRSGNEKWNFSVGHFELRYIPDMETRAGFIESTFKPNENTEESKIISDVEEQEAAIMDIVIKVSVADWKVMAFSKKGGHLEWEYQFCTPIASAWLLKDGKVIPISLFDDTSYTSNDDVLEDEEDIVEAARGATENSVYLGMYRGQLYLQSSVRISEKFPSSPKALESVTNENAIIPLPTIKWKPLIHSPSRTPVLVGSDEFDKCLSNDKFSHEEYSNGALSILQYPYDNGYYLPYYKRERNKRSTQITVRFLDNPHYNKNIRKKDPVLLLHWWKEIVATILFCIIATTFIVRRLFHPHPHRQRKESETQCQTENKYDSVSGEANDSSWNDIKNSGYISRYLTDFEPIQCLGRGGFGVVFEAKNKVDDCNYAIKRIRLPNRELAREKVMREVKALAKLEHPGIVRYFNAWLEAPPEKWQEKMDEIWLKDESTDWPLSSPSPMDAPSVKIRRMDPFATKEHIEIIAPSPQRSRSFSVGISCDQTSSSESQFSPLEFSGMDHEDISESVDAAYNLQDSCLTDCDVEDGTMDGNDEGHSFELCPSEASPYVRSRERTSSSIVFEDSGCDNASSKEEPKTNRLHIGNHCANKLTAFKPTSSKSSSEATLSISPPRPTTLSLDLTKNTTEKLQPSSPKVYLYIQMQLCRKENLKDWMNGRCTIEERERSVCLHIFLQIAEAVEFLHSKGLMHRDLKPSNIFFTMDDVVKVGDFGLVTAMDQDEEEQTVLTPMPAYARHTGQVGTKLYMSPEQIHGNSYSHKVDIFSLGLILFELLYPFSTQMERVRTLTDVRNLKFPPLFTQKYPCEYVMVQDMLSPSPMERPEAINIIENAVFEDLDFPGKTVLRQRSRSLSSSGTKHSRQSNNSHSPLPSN

[5] = biological target: Luciferin 4-monooxygenase (Photinus pyralis, UniProt P08659); assay: inhibition of purified Photinus pyralis luciferase – biochemical, luminescence, dose response (AID 1891)
Sequence of Luciferin 4-monooxygenase (P08659 whole entry): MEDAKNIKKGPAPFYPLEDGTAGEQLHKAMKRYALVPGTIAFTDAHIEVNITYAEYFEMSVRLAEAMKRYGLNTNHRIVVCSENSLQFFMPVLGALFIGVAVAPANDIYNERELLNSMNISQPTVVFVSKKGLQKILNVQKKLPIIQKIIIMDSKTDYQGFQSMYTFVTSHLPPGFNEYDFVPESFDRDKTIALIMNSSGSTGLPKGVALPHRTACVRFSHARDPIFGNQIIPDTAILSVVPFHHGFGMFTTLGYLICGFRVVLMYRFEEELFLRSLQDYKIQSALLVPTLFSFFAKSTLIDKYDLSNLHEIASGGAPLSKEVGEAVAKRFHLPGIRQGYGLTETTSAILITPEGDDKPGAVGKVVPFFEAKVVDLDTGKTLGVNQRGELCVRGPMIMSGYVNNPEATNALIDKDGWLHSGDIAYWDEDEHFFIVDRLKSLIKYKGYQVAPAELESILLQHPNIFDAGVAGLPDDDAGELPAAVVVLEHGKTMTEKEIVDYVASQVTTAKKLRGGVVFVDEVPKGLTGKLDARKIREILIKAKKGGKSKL

[6] = Luminescence Cell-Based Dose Confirmation HTS to Identify Inhibitors of Platelet Dense Granule Release. [Related pubchem assays: 1663 (Primary HTS), 1678 (Summary of Project)]; format: functional
[7] = biological target: T3, Eukaryotic translation initiation factor 2-alpha kinase 3; assay: Counterscreen assay for PERK inhibitors: Dose response cell-based high throughput screening assay to measure inhibition of PERK at 6 hours. [Related pubchem assays: 1522, 1416 ]; format: functional
[8] = Counterscreen for IDE inhibitors: Luminescence-based cell-based high throughput dose response assay to identify compounds that are cytotoxic to HEK cells. [Related pubchem assays: 434962 (Primary screen (IDE inhibitors in singlicate)), 449730 (Counterscreen (Cytotoxicity in triplicate)), 435028 (Confirmation (IDE inhibitors in triplicate)) …; format: functional; conditions: HEK293
Insulin-degrading enzyme = Insulin-degrading enzyme (Homo sapiens, UniProt P14735); assay: Dose Response: Fluorescence polarization-based cell-based high throughput dose response assay for inhibitors of insulin-degrading enzyme (IDE). [Related pubchem assays: 434962 (Primary screen (IDE inhibitors in singlicate)), 449730 (Counterscreen (Cytotoxicity in triplicate)), 435028 (Confirmation (IDE inhibitors in triplicate)), 434984 (Summary …; format: functional
Sequence of Insulin-degrading enzyme (P14735 whole entry): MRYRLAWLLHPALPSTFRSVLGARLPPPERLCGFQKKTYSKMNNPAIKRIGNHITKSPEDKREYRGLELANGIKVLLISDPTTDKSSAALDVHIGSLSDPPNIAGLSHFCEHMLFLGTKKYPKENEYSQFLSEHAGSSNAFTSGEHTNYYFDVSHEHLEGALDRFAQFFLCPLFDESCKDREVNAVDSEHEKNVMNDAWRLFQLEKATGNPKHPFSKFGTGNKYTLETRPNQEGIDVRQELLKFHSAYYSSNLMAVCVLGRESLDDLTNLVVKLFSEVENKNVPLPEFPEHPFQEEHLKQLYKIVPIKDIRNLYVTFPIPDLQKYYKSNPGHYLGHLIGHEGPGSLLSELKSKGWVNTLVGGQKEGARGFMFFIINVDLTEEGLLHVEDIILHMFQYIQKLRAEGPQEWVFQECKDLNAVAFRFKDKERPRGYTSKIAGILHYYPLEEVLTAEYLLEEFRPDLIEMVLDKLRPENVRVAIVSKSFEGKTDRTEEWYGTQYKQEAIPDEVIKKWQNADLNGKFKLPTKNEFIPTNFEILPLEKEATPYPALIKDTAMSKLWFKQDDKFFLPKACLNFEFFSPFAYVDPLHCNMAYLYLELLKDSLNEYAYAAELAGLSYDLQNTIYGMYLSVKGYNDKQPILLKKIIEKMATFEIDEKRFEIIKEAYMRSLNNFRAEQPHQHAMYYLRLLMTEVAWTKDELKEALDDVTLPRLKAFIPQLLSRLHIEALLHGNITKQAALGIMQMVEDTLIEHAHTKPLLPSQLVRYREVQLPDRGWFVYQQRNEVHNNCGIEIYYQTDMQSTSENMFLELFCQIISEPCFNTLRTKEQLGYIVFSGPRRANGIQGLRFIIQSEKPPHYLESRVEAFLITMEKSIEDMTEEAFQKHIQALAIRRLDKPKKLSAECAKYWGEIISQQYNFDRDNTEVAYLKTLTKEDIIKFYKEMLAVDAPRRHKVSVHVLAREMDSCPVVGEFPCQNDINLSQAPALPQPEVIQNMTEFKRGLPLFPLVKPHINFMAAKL

[9] = biological target: T2, Dual specificity protein phosphatase 3; assay: inhibition constants for human DUSP3 – biochemical, colorimetric, SAR follow-up (AID 2004)
[10] = biological target: Neurotensin receptor type 1 (Homo sapiens, UniProt P30989); format: functional;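 also: Image-based confirmatory dose-response assay measuring agonist activity at NTR1; NTR1-expressing U2OS osteosarcoma cells imaged for beta-arrestin GFP spot formation; agonist potency where compounds increase beta-arrestin recruitment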
Sequence of Neurotensin receptor type 1 (P30989 whole entry): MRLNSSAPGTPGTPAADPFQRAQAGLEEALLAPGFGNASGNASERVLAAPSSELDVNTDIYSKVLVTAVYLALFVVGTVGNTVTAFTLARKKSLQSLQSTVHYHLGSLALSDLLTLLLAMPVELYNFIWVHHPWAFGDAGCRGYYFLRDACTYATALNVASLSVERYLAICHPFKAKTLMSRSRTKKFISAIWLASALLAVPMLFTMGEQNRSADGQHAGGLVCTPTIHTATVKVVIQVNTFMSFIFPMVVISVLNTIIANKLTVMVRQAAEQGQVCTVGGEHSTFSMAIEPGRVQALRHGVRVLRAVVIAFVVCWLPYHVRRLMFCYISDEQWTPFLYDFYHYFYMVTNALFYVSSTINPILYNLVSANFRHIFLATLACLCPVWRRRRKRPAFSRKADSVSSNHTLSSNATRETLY

[11] = viability of uninfected HEp-2 cells – cell-based, HTS, cytotoxicity control for RSV inhibitor project, dose response (AID 2410); format: functional; conditions: human respiratory syncytial virus
[12] = system: Streptococcus sp. 'group A'; assay: Streptococcus pyogenes SK(-)GAS viability under kanamycin – luminescence, BacTiterGlo, confirmation, counter-screen for streptokinase expression inhibitor project, dose response (AID 1900); format: functional, organism-based
Streptococcus = assay: GAS UMAA2166 growth inhibition – luminescence, BacTiterGlo, counter-screen for streptokinase expression inhibitor project, dose response (AID 1915); format: functional, organism-based;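 also: potency for reduction of bacterial viability or growth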
[13] = Luminescence Cell-Based Dose Retest to Confirm Inhibitors of Cancer Stem Cells. [Related pubchem assays (depositor defined):AID2717, AID2721]; format: functional; conditions: Homo sapiens
X-box-binding protein 1 = X-box-binding protein 1 (Homo sapiens, UniProt P17861); format: functional, Cricetulus griseus;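 also: confirmatory dose-response counter-screen serving a CHOP assay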
Sequence of X-box-binding protein 1 (P17861 whole entry): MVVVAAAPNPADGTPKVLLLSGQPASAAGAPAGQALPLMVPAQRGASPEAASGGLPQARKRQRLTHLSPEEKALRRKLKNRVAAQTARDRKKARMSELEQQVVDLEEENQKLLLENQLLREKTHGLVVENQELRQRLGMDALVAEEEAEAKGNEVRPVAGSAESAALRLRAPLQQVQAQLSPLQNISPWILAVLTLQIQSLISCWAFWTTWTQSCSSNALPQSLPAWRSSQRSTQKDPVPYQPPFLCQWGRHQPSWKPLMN

[14] = biological target: Potassium voltage-gated channel subfamily KQT member 2 (Rattus norvegicus, UniProt O88943); assay: potentiation of rat KCNQ2 current – cell-based, retigabine-insensitive compounds, dose response (AID 2654); format: functional
Aspartyl aminopeptidase = Aspartyl aminopeptidase (Plasmodium falciparum 3D7, UniProt Q8I2J3)
Sequence of Aspartyl aminopeptidase (Q8I2J3 whole entry): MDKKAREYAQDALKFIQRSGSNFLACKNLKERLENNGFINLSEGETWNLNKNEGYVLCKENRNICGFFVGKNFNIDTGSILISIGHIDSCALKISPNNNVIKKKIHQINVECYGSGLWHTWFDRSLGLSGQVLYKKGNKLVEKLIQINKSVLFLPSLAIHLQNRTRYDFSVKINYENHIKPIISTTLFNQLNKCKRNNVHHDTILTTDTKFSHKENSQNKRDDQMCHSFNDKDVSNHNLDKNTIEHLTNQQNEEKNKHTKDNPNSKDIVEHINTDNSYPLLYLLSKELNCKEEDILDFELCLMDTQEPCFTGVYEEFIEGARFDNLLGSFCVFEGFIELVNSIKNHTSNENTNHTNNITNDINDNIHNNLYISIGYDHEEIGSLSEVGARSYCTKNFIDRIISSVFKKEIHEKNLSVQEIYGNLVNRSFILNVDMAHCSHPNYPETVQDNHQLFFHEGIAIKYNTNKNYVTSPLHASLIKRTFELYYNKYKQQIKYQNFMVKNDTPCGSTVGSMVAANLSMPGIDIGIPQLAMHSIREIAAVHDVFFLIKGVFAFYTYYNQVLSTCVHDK

Procathepsin L = Procathepsin L (Homo sapiens, UniProt P07711)
Sequence of Procathepsin L (P07711 whole entry): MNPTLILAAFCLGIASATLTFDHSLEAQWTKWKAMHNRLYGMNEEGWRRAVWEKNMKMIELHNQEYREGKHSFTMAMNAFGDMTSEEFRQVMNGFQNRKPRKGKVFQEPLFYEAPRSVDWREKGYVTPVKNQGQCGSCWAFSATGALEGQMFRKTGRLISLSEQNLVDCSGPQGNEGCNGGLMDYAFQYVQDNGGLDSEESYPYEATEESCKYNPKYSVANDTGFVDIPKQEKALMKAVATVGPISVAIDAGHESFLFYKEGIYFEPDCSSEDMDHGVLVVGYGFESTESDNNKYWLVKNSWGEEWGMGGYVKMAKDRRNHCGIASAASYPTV

[15] = biological target: T4, Mannose-6-phosphate isomerase (Homo sapiens, UniProt P34949); assay: MPI enzyme activity inhibition – biochemical, fluorescence intensity, coupled assay, primary screen (AID 1209)
T4 sequence (P34949 whole entry): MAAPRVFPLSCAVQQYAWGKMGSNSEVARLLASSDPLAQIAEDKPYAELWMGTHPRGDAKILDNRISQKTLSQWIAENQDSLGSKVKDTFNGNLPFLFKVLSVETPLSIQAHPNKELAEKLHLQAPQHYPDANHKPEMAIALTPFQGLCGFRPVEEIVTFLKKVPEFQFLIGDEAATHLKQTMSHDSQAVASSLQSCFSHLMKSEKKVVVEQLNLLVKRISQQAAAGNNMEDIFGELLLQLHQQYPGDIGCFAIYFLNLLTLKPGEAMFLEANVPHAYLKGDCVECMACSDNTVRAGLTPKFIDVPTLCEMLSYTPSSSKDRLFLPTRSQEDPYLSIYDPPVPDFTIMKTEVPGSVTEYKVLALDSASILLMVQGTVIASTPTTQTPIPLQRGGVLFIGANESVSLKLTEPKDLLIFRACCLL

[16] = biological target: Glucose-6-phosphate 1-dehydrogenase (Homo sapiens, UniProt P11413); assay: inhibition of Homo sapiens G6PD, dose series – biochemical, fluorescence, selectivity assay for P. falciparum G6PD inhibitor project, dose response (AID 504792); format: functional
Cytochrome P450 2C19 = Cytochrome P450 2C19 (Homo sapiens, UniProt P33261); assay: qHTS Assay for Inhibitors and Substrates of Cytochrome P450 2C19. [Related pubchem assays: 410 ]; format: ADME; conditions: read-out: Potency
Cytochrome P450 2C9 = Cytochrome P450 2C9 (Homo sapiens, UniProt P11712); conditions: Potency
[17] = biological target: T5, Intestinal-type alkaline phosphatase (Homo sapiens, UniProt P09923); assay: Dose Response confirmation of uHTS hits from a small molecule inhibitors of human intestinal alkaline phosphatase via a luminescent assay. [Related pubchem assays (depositor defined):AID2544, AID2574]; format: functional
T5 sequence (P09923 whole entry): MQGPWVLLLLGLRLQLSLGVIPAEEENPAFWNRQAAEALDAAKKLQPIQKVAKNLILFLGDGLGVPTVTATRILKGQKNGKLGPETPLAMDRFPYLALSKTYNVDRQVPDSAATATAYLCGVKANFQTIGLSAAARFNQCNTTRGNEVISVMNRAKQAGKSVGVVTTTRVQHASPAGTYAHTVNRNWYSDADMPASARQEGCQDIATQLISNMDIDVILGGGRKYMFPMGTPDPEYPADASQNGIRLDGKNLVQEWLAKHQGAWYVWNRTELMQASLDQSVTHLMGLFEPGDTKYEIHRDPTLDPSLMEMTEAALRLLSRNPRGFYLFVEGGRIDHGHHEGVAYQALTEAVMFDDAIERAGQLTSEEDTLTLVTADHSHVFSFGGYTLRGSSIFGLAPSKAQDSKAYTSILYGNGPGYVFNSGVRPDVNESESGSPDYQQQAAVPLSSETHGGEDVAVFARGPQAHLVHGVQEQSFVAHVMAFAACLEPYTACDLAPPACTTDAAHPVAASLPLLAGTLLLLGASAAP

[18] = biological target: T5, Intestinal-type alkaline phosphatase; assay: human intestinal alkaline phosphatase activators, dose response, biochemical, luminescence, uHTS hits (AID 463120); format: functional

## Cc1ccc(NC(=S)NNC(=O)c2ccccc2OC(F)F)cc1
[1]
  IC50: > 100 µM (inactive)
[2]
  IC50: > 100 µM (inactive)
[3]
  IC50: > 100 µM (inactive)

## COc1ccc(N=Nc2n(C)c3ccccc3[n+]2C)cc1
[4]
  EC50: > 55.7 µM (not active)
[5]
  EC50: 0.631 µM (active)
[6]
  EC50: 0.738 µM (active)
[7]
  EC50: > 55.7 µM (not active)

## CCN(CC)c1ccc(C=C(c2nnnn2-c2ccccc2)c2nnnn2-c2ccccc2)cc1
[8]
  IC50: > 55.7 µM (not active)
Insulin-degrading enzyme
  IC50: > 55.9 µM (not active)

## COc1ccc(-c2cc(C(=O)NCCc3ccccc3)c3ccccc3n2)c(OC)c1
[9]
  Ki: 27.9 µM (inactive)

## O=C1NC(=O)N(Cc2ccc(F)cc2)C(=O)/C1=C/c1cccs1
[10]
  EC50: 12.6 µM (active)

## CCc1cc(-c2[nH]nc(C)c2Oc2ccc(C(C)C)cc2)c(O)cc1O
[11]
  CC50: 15.9 µM (active)
[12]
  EC50: 2.28 µM (active)
Streptococcus
  EC50: 4.99 µM (active)
[13]
  AC50: 3.13 µM (active)
X-box-binding protein 1
  Absolute IC50 (XBP1): < 10 µM

## O=C(Nc1ccc(Cl)cc1)Nc1cccnc1
[14]
  EC50: 6.85 µM (active)

## CC1(C)CC2(CC(c3ccccc3F)c3ccc(O)c(O)c3O2)NC(=S)N1 (stereo not given)
Aspartyl aminopeptidase
  IC50: 1.76 µM (active)
Procathepsin L
  IC50: > 59.6 µM (not active)
[15]
  IC50: 39.9 µM (active)
[16]
  IC50: > 80 µM (inactive)

## CC(C)[C@@H](CC(=O)N[C@@H]1CCNC[C@H]1C(=O)N[C@H](CC(=O)N[C@@H](CCC(=O)O)CC(=O)O)Cc1ccccc1)NC(=O)C[C@H](CO)NC(=O)[C@@H]1CNCC[C@H]1N
Cytochrome P450 2C19
  AC50: 39.8 µM (inconclusive)
Cytochrome P450 2C9
  AC50: 25.1 µM (inconclusive)

## CC(=O)Nc1ccc(NC(=O)C2CC(=O)N(C(C)C)C2)cc1 (stereo not given)
[17]
  IC50: > 100 µM (inactive)
[18]
  EC50: > 100 µM (inactive)
